In patent US4638005A, “Monoquaternized pyrazinium compounds and their use as electron carriers in photosynthetic processes” (The Coca-Cola Company, priority 1983, dated 1987):

How the values were obtained:
nitrogenase [1] = target: T1, nitrogenase (Azotobacter vinelandii, UniProt P00459); test: Chloroplast-coupled reduction of acetylene to ethylene by nitrogenase (electron carrier bioassay of Benemann); assay type: biochemical; settings: for ACTIVITY RELATIVE TO FERREDOXIN (%) / ACTIVITY (nmoles C2 H4 /mg protein/min): Table I; for ACTIVITY RELATIVE TO FERREDOXIN (%): acetylene reduction to ethylene; for ACTIVITY (nmoles C2 H4 /mg protein/min): illuminated spinach chloroplasts, synthetic carriers 2 mM, clostridial ferredoxin 0.2 mM; for ETHYLENE FORMATION % Ferredoxin Activity: Table III ranking; for % FERREDOXIN ACTIVITY: Table IV, acetylene reduction
T1 construct: the nitrogenase sample was prepared from a culture of Azotobacter vinelandii; endogenous in cells; host or cells: Azotobacter vinelandii culture; French press lysate, 10,000 x g supernatant (crude)
T1 sequence (P00459 2-290 limits assumed): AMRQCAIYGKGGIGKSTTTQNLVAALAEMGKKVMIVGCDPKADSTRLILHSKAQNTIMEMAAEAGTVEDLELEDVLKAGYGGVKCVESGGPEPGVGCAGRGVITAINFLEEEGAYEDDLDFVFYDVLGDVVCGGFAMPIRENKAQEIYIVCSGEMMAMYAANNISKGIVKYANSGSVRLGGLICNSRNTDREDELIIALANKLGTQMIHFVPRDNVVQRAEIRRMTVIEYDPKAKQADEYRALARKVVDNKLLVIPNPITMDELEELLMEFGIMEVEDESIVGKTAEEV
Description: The activity of the pyrazinium compounds as electron carriers in an illuminated photocouple process using isolated chloroplasts and the reductive enzyme catalyst nitrogenease has been determined using the bioassay of Benemann, et al., Proc. Natl. Acad. Sci. USA, 64, 1079(1969). In this method, the carrier activity is measured as a function of nitrogenase reduction of acetylene to ethylene, the rate of production of ethylene being the direct measurement.
(§1) For the bioassay, the nitrogenase sample was prepared from a culture of Azotobacter vinelandii grown to a cell density of about 1 g/l. The cells harvested by centrifugation were broken in a French press, cell debris spun off at 10,000 XG for 1 hr., and the supernatant containing 40 mg/ml protein was used in the bioassay experiments. […] chloroplasts from spinach leaves as described by Benemann were also used. The synthetic carriers were tested in aqueous solutions at concentrations of 2 mM, while the standard, clostridial ferredoxin, was used in 0.2 mM aqueous solution. The concentrations of carriers in the assay mixtures were chosen so as to guarantee carrier saturation conditions. Thus, the observed differences in rates of ethylene production from the substrate acetylene were assigned directly to variations in the efficiency of electron transfer from the illuminated chloroplast to the nitrogenase. The results obtained for acetylene reduction (nitrogen fixation) using the pyrazinium compounds of Examples 1 through 42 are summarized in Table I and are expressed as nmoles of ethylene produced per mg protein per minute.

nitrogenase [2] = target: T1, nitrogenase; test: Chloroplast-coupled evolution of hydrogen by nitrogenase in the absence of substrate; assay type: biochemical; settings: for ACTIVITY RELATIVE TO FERREDOXIN (%) / ACTIVITY (nmoles H2 /mg protein/min): Table II, hydrogen evolution; for ACTIVITY (nmoles H2 /mg protein/min): no nitrogen or acetylene, synthetic carriers 2 mM, ferredoxin 0.2 mM
Description: as §1
It has been recognized for sometime the connection existing between hydrogen metabolism and nitrogen fixation. […] When nitrogenase was purified extensively, as mentioned above, it became apparent that in addition to nitrogen, nitrogenase also catalyzed the reduction of protons. The evolution of hydrogen is particularly active in the absence of the normal substrates for nitrogenase (nitrogen, acetylene, cyanide, azide, etc.), and is dependent upon a strong reductant and adenosine triphosphate hydrolysis. Since hydrogen evolution is not inhibited by CO, but reduction of nitrogen and other substrates is, the reduction of protons presumably occurs at a site other than the site of nitrogen reduction, H. C. Winter, et. al., Ann Rev. Biochem, 45, 409 (1976). Accordingly, with the same bioassay system and with exclusion of nitrogen, and acetylene, the activity of the pyrazinium compounds to act as carriers for production of hydrogen has been determined.
The results of this study, which are summarized in Table II, indicate that the pyrazinium salts that mediate the reduction of acetylene with electrons from the photoexcited chloroplast, are also mediating the reduction of protons by the nitrogenase.

[3] = Polarographic half-wave potential (first wave reduction); assay type: physicochemical; settings: 0.1 M phosphate buffer pH 7.55, 25° C.
From the text: Sci., 65, 1471(1976). Therefore, it was of interest to measure polarographically the half-wave potentials of the several pyrazinium salts under consideration, to determine the possible effect of structure upon their redox potentials.

Row | Compound | ACTIVITY RELATIVE TO FERREDOXIN (%) (nitrogenase [1]) | ACTIVITY (nmoles C2 H4 /mg protein/min) (nitrogenase [1]) | ETHYLENE FORMATION % Ferredoxin Activity (nitrogenase [1]) | % FERREDOXIN ACTIVITY (nitrogenase [1]) | ACTIVITY RELATIVE TO FERREDOXIN (%) (nitrogenase [2]) | ACTIVITY (nmoles H2 /mg protein/min) (nitrogenase [2]) | E1/2 vs. SCE (mV) [3] | HYDROGEN EVOLUTION % Ferredoxin Activity (nitrogenase [2]; Table III ranking)
1 | C[n+]1ccnc(C(N)=O)c1 [Compound 4600] | 0% | 0.0 nmoles C2 H4 /mg protein/min | 0% | 0% | 0% | 0.0 nmoles H2 /mg protein/min | -479 mV | 
2 | 1-Methyl-3(2)-hydroxymethyl-6(5)-methylpyrazinium iodide [Compound 500] | 22% | 3.0 nmoles C2 H4 /mg protein/min | 22% | 22% | 46% | 12.3 nmoles H2 /mg protein/min | -751 mV | 
3 | C[n+]1ccnc(CS(=O)(=O)[O-])c1 [Compound 2800] | 61% | 8.3 nmoles C2 H4 /mg protein/min | 61% | 61% | 140% | 37.3 nmoles H2 /mg protein/min | -690 mV | 
4 | CCCC(c1c[n+](C)ccn1)S(=O)(=O)[O-] (stereo not drawn) [Compound 1200] | 107% | 14.5 nmoles C2 H4 /mg protein/min | 107% | 107% | 143% | 38.1 nmoles H2 /mg protein/min | -699 mV | 
5 | Cc1cnc(CS(=O)(=O)[O-])c[n+]1C [Compound 3200] | 98% | 13.3 nmoles C2 H4 /mg protein/min | 98% | 98% | 161% | 43.1 nmoles H2 /mg protein/min | -673 mV | 
6 | CCC(Cc1c[n+](C)ccn1)S(=O)(=O)[O-] (stereo not drawn) [Compound 1000] | 95% | 12.8 nmoles C2 H4 /mg protein/min | 95% | 95% | 73% | 19.5 nmoles H2 /mg protein/min | -710 mV | 
7 | C[n+]1ccnc(CCC(N)=O)c1 [Compound 4000, 1-Methyl-3-(2-carboxamidoethyl)pyrazinium iodide] | 28% | 3.8 nmoles C2 H4 /mg protein/min | 28% | 28% | 36% | 9.5 nmoles H2 /mg protein/min | -685 mV | 
8 | CC(c1c[n+](C)ccn1)S(=O)(=O)[O-] (stereo not drawn) [Compound 2400] | 105% | 14.2 nmoles C2 H4 /mg protein/min | 105% | 105% | 128% | 34.1 nmoles H2 /mg protein/min | -701 mV | 
9 | C[n+]1ccnc(CCC(=O)O)c1.[I-] [Compound 3900, 1-Methyl-3-(2-carboxyethyl)pyrazinium iodide] | 27% | 3.7 nmoles C2 H4 /mg protein/min | 27% |  | 45% | 11.9 nmoles H2 /mg protein/min |  | 
10 | C=Cc1c[n+](C)ccn1 [Compound 5100] |  | 1.8 nmoles C2 H4 /mg protein/min | 13% | 13% |  | 2.8 nmoles H2 /mg protein/min |  | 10%
